Laboratory results taken from US11919902B2, “Aryl-bipyridine amine derivatives as phosphatidylinositol phosphate kinase inhibitors” (HiberCell, Inc., priority 2017, dated 2024).

Tests used:
[1] = target: T1, GST tagged PIP4KtypeIIA (Homo sapiens, UniProt P48426); experiment: ADP-glo kinase assay PIP4K 2A (PIP4KtypeIIA inhibition assay); type: biochemical; details: Table 3; compounds listed under IC50 range headings; 10 uM ATP, 0.5 nM PIP4KIIA
T1 construct: made in house; host or cells: E. coli
T1 sequence (P48426 1-406): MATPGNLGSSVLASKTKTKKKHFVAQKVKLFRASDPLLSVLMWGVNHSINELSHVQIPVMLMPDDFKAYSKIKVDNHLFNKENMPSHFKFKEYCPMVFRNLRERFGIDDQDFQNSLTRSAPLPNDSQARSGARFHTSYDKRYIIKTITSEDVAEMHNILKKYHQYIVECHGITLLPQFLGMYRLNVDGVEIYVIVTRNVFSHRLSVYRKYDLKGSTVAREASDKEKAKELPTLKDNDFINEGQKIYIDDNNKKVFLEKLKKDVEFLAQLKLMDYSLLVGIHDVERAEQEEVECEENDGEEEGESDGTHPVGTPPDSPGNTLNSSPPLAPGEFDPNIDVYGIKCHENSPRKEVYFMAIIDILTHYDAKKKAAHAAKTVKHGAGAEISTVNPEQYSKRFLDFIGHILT
Description: GST tagged PIP4KtypeIIA and B enzymes were overexpressed in E. Coli and purified to >80% homogeneity. Phosphatidyl inositol-5-phosphate (PI5P, Cat. #850152, Avanti Polar Lipids Inc.) was used as the lipid substrate and phosphatidyl ethanolamine (DOPE 18:1, Cat. #850725, Avanti Polar Lipids Inc.) was used as the carrier lipid for assays. Ultrapure ATP and GTP was purchased from Bellbrooke Labs. ADP Glo reagents were obtained from Promega. Transcreener FI reagent was obtained from Bellbrooke labs.
1. HEPES buffer mix: 200 mM HEPES pH 7.4, 50 mM MgCl2, 0.05% v/v triton×100
2. HNE buffer: 20 mM HEPES, pH 7.4, 100 mM NaCl, 0.5 mM EGTA
3. H:E buffer: 30 mM HEPES, pH 7.4, 1 mM EGTA
Enzyme preparation: GST-tagged PIP4KtypeIIA (5 uL, 1.43 mg/mL) was diluted (1:10) to 50 uL using HNE buffer. From the 1:10 diluted stock, a 6.4 uL aliquot was diluted further to 5 mL using HNE buffer to yield 5× enzyme stock (2.5 nM).
Lipid Preparation: In a 10 mL pyrex glass vial, lug of PI5P and lug of DOPE were suspended in 2.5 mL of HEPES buffer mix and 2.5 mL of H:E buffer. The contents were mixed and sonicated for 3 min to yield a translucent lipid stock.
Compound Preparation: Compounds were stored as 5 mM stocks in neat DMSO as room temperature in glass vials. 5 mM stocks were diluted to 2 mM and then serially diluted (3×) in neat DMSO in 96 well polypropylene plates. From the serially diluted stocks, 3 uL was delivered into 250 uL of 25% DMSO (in water) to generate 5× compound stocks. Typically, the highest compound conc. was 24 uM.
The assay volume was kept at 25 uL. To each well of the reaction plate, 10 uL of lipid stock (1:1 ratio PI5P:DOPE) was delivered. This was followed by the addition of 5 uL of compound in 25% DMSO. Then, to each well, 5 uL of 2.5 nM (5×) typeIIA enzyme was delivered. The contents were mixed well and incubated for 1 h at 27 C. After 1 h, reaction was initiated by adding 5 uL of 50 uM ATP and the contents were mixed well with a multi-channel pipetteman. The final concentration of the reagents are as follows: 50 mM HEPES, pH 7.3, 10 mM MgCl2, 20 mM NaCl, 0.01% v/v triton-X100, 5% DMSO, 10 uM ATP, 80 uM (2 ug) PI5P, 2 ug DOPE, and 0.5 nM PIP4KIIA. Typically, the highest conc. of compounds was 4.8 uM and the lowest conc. was 0.
After 1 hr, the reaction was quenched by adding 25 uL of ADP Glo reagent. The contents were incubated for 1 hr. Afterwards, 50 uL of kinase detection reagent was delivered. The contents were incubated for another hour. The luminescence was read using Molecular Devices Paradigm plate reader. […] The blanks were averaged and subtracted from all other wells. Using a calibration curve, RLU was converted to uM ADP (product). IC50 was calculated by plotting the residual activity (expressed as % No inhibitor control) vs. log [Inh. conc.]

[2] = target: T2, GST tagged PIP4KtypeIIB (Homo sapiens, UniProt P78356); experiment: Trans-FI P kinase assay PIP4K2B (PIP4KtypeIIB inhibition assay); type: biochemical; details: Table 4; compounds listed under IC50 range headings; 100 uM GTP, 5 nM PIP4KIIB; read-out: Trans-FI P kinase assays: PIP4K2B IC50
T2 construct: made in house; host or cells: E. coli
T2 sequence (P78356 1-416): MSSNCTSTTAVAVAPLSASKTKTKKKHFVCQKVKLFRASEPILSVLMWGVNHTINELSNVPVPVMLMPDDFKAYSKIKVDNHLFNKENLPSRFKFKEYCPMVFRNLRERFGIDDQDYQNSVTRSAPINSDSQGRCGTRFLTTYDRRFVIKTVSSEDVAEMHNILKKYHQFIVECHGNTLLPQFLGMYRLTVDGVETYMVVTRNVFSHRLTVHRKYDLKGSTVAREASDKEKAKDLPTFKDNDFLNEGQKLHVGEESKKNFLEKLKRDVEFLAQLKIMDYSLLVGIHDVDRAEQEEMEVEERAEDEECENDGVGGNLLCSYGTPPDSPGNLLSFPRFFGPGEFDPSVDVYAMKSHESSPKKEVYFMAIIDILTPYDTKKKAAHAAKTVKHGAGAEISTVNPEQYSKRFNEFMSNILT
Summary of the method: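 Transcreener FI fluorescence, converted to GDP by calibration, tracked product from 5 nM E. coli-expressed GST-PIP4KIIB acting on 80 uM PI5P (DOPE carrier) with 100 uM GTP. Compound (top 4.8 uM final, 5% DMSO) was preincubated 1 h at 27 C before the 2 h reaction; IC50 fitted from residual activity.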

[3] = target: T3, PIP4K2A (full length protein, SignalChem) (Homo sapiens, UniProt P48426); experiment: Kinase Assay PIP4K2 A (Sprint); ADP-Glo biochemical assay; details: Table 2; compounds listed under IC50 range headings
T3 construct: 4 nM PIP4K2A (full length protein, SignalChem); purchased SignalChem
T3 sequence (P48426 1-406): T1 sequence (P48426 1-406)
Summary of the method: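 ADP-Glo luminescence detected ADP after a 1 h RT reaction started with 60 μM ATP solution. Before that, full-length PIP4K2A (4 nM in mix) with 100 μM PI(5)P diC8 was pre-incubated 15 min with compounds in MOPS buffer pH 7.2, 25 mM MgCl2, 0.005% Tween 20. IC50 derived from % inhibition relative to DMSO over 10 three-fold concentrations.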

Structure (SMILES) | IC50 [1] [nM] | IC50 [2] [nM] | IC50 [3] [nM]
Cc1c(-c2ccc(N3CCCC3=O)cc2)cncc1-c1cn(C)c2ncc([C@H](C)O)cc12 (single isomer, unassigned) [196(S)] | 100 to 1000 | 100 to 1000 | –
Cc1cc(N2CCCC2=O)ccc1-c1cncc(-c2cn(C)c3ncc([C@@H](C)O)cc23)c1 (single isomer, unassigned) [197(R)] | 100 to 1000 | 1000 to 2500 | –
Cc1cc(N2CCCC2=O)ccc1-c1cncc(-c2cn(C)c3ncc([C@H](C)O)cc23)c1 (single isomer, unassigned) [197(S)] | 100 to 1000 | 1000 to 2500 | –
CN(C)C(=O)c1ccc(-c2cc(-c3ccnc4[nH]c(C(=O)NCCN)cc34)cnc2N)nc1 [Example 133, 4-(2′-amino-5-(dimethylcarbamoyl)-[2,3′-bipyridin]-5′-yl)-N-(2-aminoethyl)-1H-pyrrolo[2,3-b]pyridine-2-carboxamide] | 1000 to 2500 | 100 to 1000 | –
CN(C)C(=O)c1ccc(-c2cc(-c3ccnc4[nH]c(C(=O)N5CCS(=O)(=O)CC5)cc34)cnc2N)nc1 [Example 142, 2′-amino-5′-(2-(1,1-dioxidothiomorpholine-4-carbonyl)-1H-pyrrolo[2,3-b]pyridin-4-yl)-N,N-dimethyl-[2,3′-bipyridine]-5-carboxamide] | 100 to 1000 | 100 to 1000 | –
CN(C)C(=O)c1ccc(-c2cc(-c3ccnc4[nH]c(C(=O)NCC(=O)O)cc34)cnc2N)nc1 [Example 145, (4-(2′-amino-5-(dimethylcarbamoyl)-[2,3′-bipyridin]-5′-yl)-1H-pyrrolo[2,3-b]pyridine-2-carbonyl)glycine] | 100 to 1000 | 100 to 1000 | –
Cc1c(-c2ccc(N3CCCC3=O)cc2)cncc1-c1cn(C)c2ncc(C(C)O)cc12 (centres unmarked) [Example 196, 1-(4-(5-(5-(1-hydroxyethyl)-1-methyl-1H-pyrrolo[2,3-b]pyridin-3-yl)-4-methylpyridin-3-yl)phenyl)pyrrolidin-2-one] | 100 to 1000 | – | –
O=C(COc1cccc2c1C(=O)N(C1CCC(=O)NC1=O)C2=O)NCCCCCCCCNC(=O)c1cc2c(-c3cncc(-c4ccc(N5CCCC5=O)cc4)c3)ccnc2[nH]1 (centres unmarked) [Example 395, N-(8-(2-((2-(2,6-dioxopiperidin-3-yl)-1,3-dioxoisoindolin-4-yl)oxy)acetamido)octyl)-4-(5-(4-(2-oxopyrrolidin-1-yl)phenyl)pyridin-3-yl)-1H-pyrrolo[2,3-b]pyridine-2-carboxamide] | – | 100 to 1000 | 1000 to 2500
C[C@@H]1C[C@@H](C(C)(C)O)N(C(=O)c2cc3c(-c4cncc(-c5ccc(N6CCCC6=O)cc5)c4)ccnc3[nH]2)C1 [Example 397] | – | 100 to 1000 | 100 to 1000

Second part, the compound after the results:

IC50 [1] [nM] | IC50 [2] [nM] | IC50 [3] [nM] | Structure (SMILES)
100 to 1000 | 100 to 1000 | – | Cc1c(-c2ccc(N3CCCC3=O)cc2)cncc1-c1cn(C)c2ncc([C@@H](C)O)cc12 (single isomer, unassigned) [196(R)]
100 to 1000 | 10 to 100 | – | CN(C)C(=O)c1ccc(-c2cc(-c3ccnc4[nH]c(C(=O)NC5CCOCC5)cc34)cnc2N)nc1 [Example 137, 4-(2′-amino-5-(dimethylcarbamoyl)-[2,3′-bipyridin]-5′-yl)-N-(tetrahydro-2H-pyran-4-yl)-1H-pyrrolo[2,3-b]pyridine-2-carboxamide]
100 to 1000 | 10 to 100 | – | CN(C)C(=O)c1ccc(-c2cc(-c3ccnc4[nH]c(C(=O)N5CCCC5)cc34)cnc2N)nc1 [Example 141, 2′-amino-N,N-dimethyl-5′-(2-(pyrrolidine-1-carbonyl)-1H-pyrrolo[2,3-b]pyridin-4-yl)-[2,3′-bipyridine]-5-carboxamide]
100 to 1000 | 10 to 100 | – | CN(C)C(=O)c1ccc(-c2cc(-c3ccnc4[nH]c(C(N)=O)cc34)cnc2N)nc1 [Example 143, 4-(2′-amino-5-(dimethylcarbamoyl)-[2,3′-bipyridin]-5′-yl)-1H-pyrrolo[2,3-b]pyridine-2-carboxamide]
100 to 1000 | 10 to 100 | – | CN(C)C(=O)c1ccc(-c2cc(-c3ccnc4[nH]c(C(=O)NCC(N)=O)cc34)cnc2N)nc1 [Example 144, N-(2-amino-2-oxoethyl)-4-(2′-amino-5-(dimethylcarbamoyl)-[2,3′-bipyridin]-5′-yl)-1H-pyrrolo[2,3-b]pyridine-2-carboxamide]
100 to 1000 | 10 to 100 | – | CN(C)C(=O)c1ccc(-c2cc(-c3ccnc4[nH]c(C(=O)NC5COC5)cc34)cnc2N)nc1 [Example 146, 4-(2′-amino-5-(dimethylcarbamoyl)-[2,3′-bipyridin]-5′-yl)-N-(oxetan-3-yl)-1H-pyrrolo[2,3-b]pyridine-2-carboxamide]
100 to 1000 | 10 to 100 | – | CN(C)C(=O)c1ccc(-c2cc(-c3ccnc4[nH]c(C(=O)N5CC6(COC6)C5)cc34)cnc2N)nc1 [Example 147, 5′-(2-(2-oxa-6-azaspiro[3.3]heptane-6-carbonyl)-1H-pyrrolo[2,3-b]pyridin-4-yl)-2′-amino-N,N-dimethyl-[2,3′-bipyridine]-5-carboxamide]
1000 to 2500 | 10 to 100 | – | CN(C)C(=O)c1ccc(-c2cc(-c3ccnc4[nH]c(C(=O)NC5CCNC5=O)cc34)cnc2N)nc1 (centres unmarked) [Example 149, 4-(2′-amino-5-(dimethylcarbamoyl)-[2,3′-bipyridin]-5′-yl)-N-(2-oxopyrrolidin-3-yl)-1H-pyrrolo[2,3-b]pyridine-2-carboxamide]
– | 10 to 100 | 1000 to 2500 | CC(C)Cn1cnnc1-c1ccc(-c2cncc(-c3ccnc4[nH]c(C(=O)NCCc5ccncc5)cc34)c2)cc1 [Example 396, 4-(5-(4-(4-isobutyl-4H-1,2,4-triazol-3-yl)phenyl)pyridin-3-yl)-N-(2-(pyridin-4-yl)ethyl)-1H-pyrrolo[2,3-b]pyridine-2-carboxamide]
